Laboratory results as given in the NIST ThermoML archive (doi:10.1016/j.jct.2012.08.030).

Experiments:
[1] = xn = mol fraction of the nth substance listed; settings: 101.3 kPa, Liquid; for speed of sound: Sing-around technique in a fixed-path interferometer; for mass density: Vibrating tube method
[2] = refractive index (Na D-line) (dimensionless); xn = mol fraction of the nth substance listed; settings: 101.3 kPa, Liquid, Standard Abbe refractometry

CCCCn1cc[n+](C)c1.COS(=O)(=O)[O-] [1-butyl-3-methylimidazolium methyl sulfate] + CCCCO
Settings	mass density, [1] [kg/m3]	refractive index, [2]	speed of sound, [1] [m/s]
298.15 K, x1 = 0.0425	843.506	1.40525	1261.4
298.15 K, x1 = 0.0922	882.293	1.41307	1285.1
298.15 K, x1 = 0.1929	948.953	1.42652	1333.2
298.15 K, x1 = 0.2926	1002.76	1.43736	1379.5
298.15 K, x1 = 0.3915	1047.2	1.44629	1424.2
298.15 K, x1 = 0.4981	1087.51	1.45433	1471
298.15 K, x1 = 0.5997	1120.12	1.4608	1513.5
298.15 K, x1 = 0.7996	1172.03	1.47095	1589.4
298.15 K, x1 = 1	1212.06	1.47824	1654.6
303.15 K, x1 = 0.0425	839.735	1.40335	1245.6
303.15 K, x1 = 0.0922	878.554	1.41133	1270
303.15 K, x1 = 0.1929	945.272	1.42489	1318.8
303.15 K, x1 = 0.2926	999.143	1.43578	1365.8
303.15 K, x1 = 0.3915	1043.64	1.44477	1411
303.15 K, x1 = 0.4981	1084.01	1.45286	1458.1
303.15 K, x1 = 0.5997	1116.66	1.45937	1500.9
303.15 K, x1 = 0.7996	1168.59	1.46959	1577.1
303.15 K, x1 = 1	1208.7	1.47704	1642.2
308.15 K, x1 = 0.0425	835.931	1.40141	1229.6
308.15 K, x1 = 0.0922	874.794	1.40946	1254.6
308.15 K, x1 = 0.1929	941.58	1.42315	1304.3
308.15 K, x1 = 0.2926	995.525	1.43415	1351.8
308.15 K, x1 = 0.3915	1040.09	1.44321	1397.5
308.15 K, x1 = 0.4981	1080.52	1.45136	1445.1
308.15 K, x1 = 0.5997	1113.21	1.45792	1488.2
308.15 K, x1 = 0.7996	1165.14	1.46821	1564.7
308.15 K, x1 = 1	1205.35	1.47577	1630
313.15 K, x1 = 0.0425	832.1	1.39946	1213.7
313.15 K, x1 = 0.0922	871.02	1.40762	1239.3
313.15 K, x1 = 0.1929	937.88	1.42144	1289.8
313.15 K, x1 = 0.2926	991.896	1.43253	1338
313.15 K, x1 = 0.3915	1036.54	1.44166	1384.2
313.15 K, x1 = 0.4981	1077.03	1.44987	1432.3
313.15 K, x1 = 0.5997	1109.78	1.45646	1475.7
313.15 K, x1 = 0.7996	1161.71	1.46682	1552.6
313.15 K, x1 = 1	1202.01	1.47443	1617.9
